For orientation: IC50 means the concentration that inhibits the measured activity by half.

A short description of the first data set: Drug level in FVB mouse cerebral cortex at 100 mg/kg, po after 3 hrs. It counts as ADME, organism-based. Also on record: dose 100 mg/kg, route oral. To be noted: read-out: Drug uptake.
On to `O=S(=O)(c1ccc(Cl)cc1)N1C2CCCC1c1cn[nH]c1C2` (single isomer, unassigned; (+)), for which the concentration at 3 h turned out to be 86 nM.

The next data set is described as follows: Drug level in FVB mouse plasma at 100 mg/kg, po after 3 hrs. Type of data set: ADME, organism-based. Also noted: dose 100 mg/kg, route oral.
Settings: not given
`O=S(=O)(c1ccc(Cl)cc1)N1C2CCCC1c1cn[nH]c1C2` (single isomer, unassigned; (+)) showed a concentration at 3 h of 194 nM.

A short description of another data set: Inhibition of gamma-secretase.
Settings: not given
`CC(=O)Nc1n[nH]c2c1C1CCCC(C2)N1S(=O)(=O)c1ccc(Cl)cc1` (stereo not drawn): the IC50 turned out to be 70 nM.
In turn, `Nc1ncc2c(n1)CC1CCCC2N1S(=O)(=O)c1ccc(Cl)cc1` (stereo not drawn) displayed a half-maximal inhibitory concentration (IC50) of 5500 nM.
Still for that read-out and setting: then `Cc1n[nH]c2c1C1CCCC(C2)N1S(=O)(=O)c1ccc(Cl)cc1` (stereo not drawn), with 65 nM; and `O=S(=O)(c1ccc(Cl)cc1)N1C2CCCC1c1c(C(F)(F)F)n[nH]c1C2` (stereo not drawn), with 70 nM; and `Cn1ncc2c1CC1CCCC2N1S(=O)(=O)c1ccc(Cl)cc1` (stereo not drawn), with above 10000 nM.
In the case of `O=C1NCCCC[C@H]1N(Cc1ccc(Br)cc1)S(=O)(=O)c1ccc(Cl)cc1`, the IC50 was 25 nM.
In the case of `CN1CCCC[C@@H](N(Cc2ccc(Br)cc2)S(=O)(=O)c2ccc(Cl)cc2)C1=O`, the midpoint of inhibition, the IC50, lay at 1700 nM.
Still for that read-out and setting: then `O=S(=O)(c1ccc(Cl)cc1)N1C2CCCC1CCC2`, with 1300 nM; and `COc1ncc2c(n1)CC1CCCC2N1S(=O)(=O)c1ccc(Cl)cc1` (stereo not drawn), with 9000 nM; and `COc1cc(CN([C@@H]2CCCCNC2=O)S(=O)(=O)c2ccc(Cl)cc2)ccc1OCCc1scnc1C`, with 650 nM.
In turn, `O=S(=O)(c1ccc(Cl)cc1)N1C2CCCC1c1c(C(F)F)n[nH]c1C2` (stereo not drawn) yielded an IC50 of 85 nM.
The same measure, in the same setting: then `O=S(=O)(c1ccc(Cl)cc1)N1C2CCCC1c1cnc(O)nc1C2` (stereo not drawn), with above 10000 nM; and `O=C1c2[nH]ncc2C2CCCC1N2S(=O)(=O)c1ccc(Cl)cc1` (stereo not drawn), with 8 nM; and `O=S(=O)(c1ccc(Cl)cc1)N1C2CCCC1C(F)(F)c1[nH]ncc12` (stereo not drawn), with 3 nM.
`Cn1cc2c(n1)CC1CCCC2N1S(=O)(=O)c1ccc(Cl)cc1` (stereo not drawn) came in with an IC50 above 10000 nM.
`O=S(=O)(c1ccc(Cl)cc1)N1C2CCCC1c1cnoc1C2` (stereo not drawn) showed an IC50 of 3500 nM.
Consider `Nc1nc2c(s1)C1CCCC(C2)N1S(=O)(=O)c1ccc(Cl)cc1` (stereo not drawn), for which the IC50 was above 10000 nM.
In the case of `CSc1n[nH]c2c1C1CCCC(C2)N1S(=O)(=O)c1ccc(Cl)cc1` (stereo not drawn), the IC50 was 390 nM.
The compound `Nc1n[nH]c2c1C1CCCC(C2)N1S(=O)(=O)c1ccc(Cl)cc1` (stereo not drawn) showed an IC50 of 105 nM.
On to `CN(C)c1n[nH]c2c1C1CCCC(C2)N1S(=O)(=O)c1ccc(Cl)cc1` (stereo not drawn), for which the IC50 is above 10000 nM.
The compound `CSc1ncc2c(n1)CC1CCCC2N1S(=O)(=O)c1ccc(Cl)cc1` (stereo not drawn) registered a half-maximal inhibitory concentration (IC50) above 10000 nM.
`O=S(=O)(c1ccc(Cl)cc1)N1C2CCCC1c1cncnc1C2` (stereo not drawn) had an IC50 of 4700 nM.
For `N[C@H]1C[C@H]2CCC[C@@H](C1)N2S(=O)(=O)c1ccc(Cl)cc1`, the IC50 was above 10000 nM.
With `O=S(=O)(c1ccc(Cl)cc1)N1C2CCCC1c1cn[nH]c1C2` (stereo not drawn), the IC50 was found to be 4 nM.
`C[C@@H]1CCC[C@H](C)N1S(=O)(=O)c1ccc(Cl)cc1`: the IC50 is 1700 nM.
Same read-out and setting: in the case of `CNC1CC2CCCC(C1)N2S(=O)(=O)c1ccc(Cl)cc1` (racemic) it was above 10000 nM; in that of `CC(=O)NC1CC2CCCC(C1)N2S(=O)(=O)c1ccc(Cl)cc1` (racemic), above 10000 nM; in that of `O=S(=O)(c1ccc(Cl)cc1)N1C2CCCC1CC(=NO)C2` (racemic), 3300 nM.
`Cc1ccc(S(=O)(=O)C(=O)NC2CC3CCCC(C2)N3S(=O)(=O)c2ccc(Cl)cc2)cc1` (racemic) registered an IC50 of 8000 nM.
`O=S(=O)(c1ccc(Cl)cc1)N1[C@@H]2CCC[C@H]1C[C@@H](O)C2` (stereo in doubt; 8a): it took 3000 nM to reach half-maximal inhibition (IC50).
Compound `O=S(=O)(c1ccc(Cl)cc1)N1[C@@H]2CCC[C@H]1C[C@@H](O)C2` (stereo in doubt; 8b) showed a concentration for half-maximal inhibition (IC50) of 600 nM.
